Holding throughout (assay): NCI tumour cell line growth inhibition, 48 h
Test [1] has as its system UACC-257 melanoma.
For test [2], the system named is RPMI-8226 leukemia.
Test [3] relates to KM12 colon.
Test [4] relates to SNB-19 CNS.
The test system of test [5] is CCRF-CEM leukemia.
For test [6], the system named is NCI-H226 lung.
The subject of test [7] is SF-268 CNS.
For test [8], the system named is OVCAR-3 ovarian.
In test [9] the test system is LOX IMVI melanoma.
Test [10] concerns MDA-MB-231 breast.

The structures appear in SMILES notation.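 Cultured in 96-well plates, cells were exposed to test compound for 48 hours across five concentrations. At the TGI there is no net growth.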

As to `COC(=O)/C=C\n1c(C)cc(=O)[nH]c1=O`, the TGI in test [1], in [2], in [3], in test [4], in test [5] and in test [6] was more than 100 µM in each case. The TGI in test [7] and in [8] was more than 100 µM each time.
For the molecule `CCOC(=O)C1(C/C=C(/C)Cl)CCCC1=O` (stereo not given), the TGI in test [1] was more than 100 µM; in test [2] it was 53.6 µM; in test [3] it was more than 100 µM; in [9], more than 100 µM; in test [4], more than 100 µM; in [5], more than 100 µM. Besides, the TGI in test [6], in test [7] and in test [8] was more than 100 µM each time.
For `CN1CCCC2(CCCc3ccccc32)C1` (stereo not given), the TGI in test [1], in [2], in test [3], in test [9], in test [5] and in [6] was more than 100 µM throughout. Also, the TGI in test [7] and in test [8] was more than 100 µM throughout.
With `N#CCc1n[nH]c(Cc2ccccc2)n1`, the TGI in [1], in test [3], in test [9], in [4], in test [5] and in test [10] was more than 100 µM in each case. Also, the TGI in test [7] and in test [8] was more than 100 µM throughout.
As to `COC(=O)C1C/C(=C/N(C)C)C(=S)N1` (stereo not given), the TGI in test [1], in test [2], in test [3], in test [4], in [5] and in test [10] was more than 100 µM each time. Besides, the TGI in test [7] and in test [8] was more than 100 µM in each case.
Regarding `CCSc1sc(=Nc2ccc(N=c3sc(C)c(SC)s3)cc2)sc1-c1ccc(C)cc1`, the TGI in [1], in [2], in [3], in test [9], in test [4] and in test [5] was more than 100 µM in each case. Moreover, the TGI in test [10], in test [7] and in [8] was more than 100 µM throughout.
As to `C[C@]12CCC(=O)C=C1CC[C@@H]1[C@@H]2[C@@H](O)C[C@@]2(C)[C@H]1CC[C@]2(O)C(=O)COC(=O)COCC(=O)O`, the TGI in test [1], in [2], in [3], in test [9], in test [4] and in test [5] was more than 100 µM throughout. In addition, the TGI in test [6], in [7] and in test [8] was more than 100 µM each time.
As for `COc1cc2c(c(OC)c1OC)-c1ccc(SC)c(=O)cc1[C@@H](NCc1ccc(C#N)cc1)CC2`, the TGI in [2] is more than 100 µM; in test [9] it was 55.1 µM; in [4], more than 100 µM; in test [6], 0.00977 µM; in test [8], 0.0129 µM.
As to `Clc1ccc(SC(/C=C/NNC2=NC(c3ccccc3)C(c3ccccc3)=NN2)c2ccccc2)cc1` (stereo not given), the TGI in test [1] was 55.2 µM; in [2] it was 30.3 µM; in test [3] it was 67.2 µM; in test [9], 65.7 µM; in [4], more than 100 µM; in test [5], 73.1 µM. Also, the values for the TGI in test [6], in test [7] and in [8] were 62.7 µM, 78.1 µM and 60.5 µM, respectively.
As to `BrCCCCCOc1ccc(-c2c3ccccc3c(-c3ccc(OCCCCCBr)cc3)c3ccccc23)cc1`, the TGI in [1], in [2], in test [3], in [4], in [5] and in test [10] was more than 100 µM each time. The TGI in test [6] and in test [7] was more than 100 µM in each case.
Regarding `O=C(NCCC1([N+](=O)[O-])CCN(C(=O)c2ccccc2)CC1)c1ccccc1`, the TGI in test [1] was 87.8 µM; in test [2], more than 100 µM; in test [3] it was more than 100 µM; in test [4], more than 100 µM; in test [5] it was more than 100 µM; in [10] it was more than 100 µM. Also, the TGI in [6] and in test [7] was more than 100 µM throughout.
Regarding `Cc1ccc(S(=O)(=O)N/N=C(\c2nc3ccc(Cl)cc3[nH]c2=O)C(O)c2cccc([N+](=O)[O-])c2)cc1` (stereo not given), the TGI in [1], in test [2], in [3], in test [9], in test [4] and in [5] was more than 100 µM in each case. Besides, the TGI in test [6], in test [7] and in [8] was more than 100 µM each time.
As for `CN(C)c1ccc(C(=C(c2ccc(N(C)C)cc2)c2ccc(N(C)C)cc2)c2ccc(N(C)C)cc2)cc1`, the TGI in test [1] is 34.8 µM; in [2], 47.6 µM; in [3], 47.8 µM; in [9], 31.2 µM; in [4], 29.4 µM; in test [5] it was 50.4 µM. In addition, the TGI came to 36.9 µM in test [6], 56.4 µM in test [7] and 2.97 µM in test [8].
Regarding `Cc1c(Cl)nc(Nc2nc3ccccc3[nH]2)nc1Cl`, the TGI in test [1] is more than 100 µM; in [2], more than 100 µM; in [3] it was 41.6 µM; in [4], more than 100 µM; in [6] it was more than 100 µM; in test [7] it was more than 100 µM.
As to `O=C1c2ccc(O)cc2C(=O)c2ccc(O)cc21`, the TGI in test [1], in test [2], in test [3], in test [9], in test [4] and in [5] was more than 100 µM in each case. Further, the TGI in [7] and in test [8] was more than 100 µM in each case.
On to `CC(C)(C)N=NNc1cn(C2OC(CO)C(O)C2O)c(=O)[nH]c1=O` (stereo not given), for which the TGI in test [1] was more than 100 µM; in test [2], 42.7 µM; in test [3] it was more than 100 µM; in [9], more than 100 µM; in [4] it was more than 100 µM; in test [5], 95.4 µM. The TGI in test [6], in test [7] and in test [8] was more than 100 µM each time.

The values are drawn from PubChem BioAssay (NCI).
